Reference: patent publication US20100015071A1, “Compositions for Improving Skin Conditions Comprising Alpha-Bisabolol as an Active Ingredient” (Biospectrum Inc., priority 2007, published 2010)

Legend:
B16 mouse melanoma cells [1] = experiment: Inhibition of melanin production in B16 mouse melanoma cells; type: cell-based; details: 72 h, B16 F10 cells, 3 days, read-out: Inhibitory rate of melanin production (%)
Method: This cell pellets were dried at 60° C., 100 μl of 1M NaOH containing 10% DMSO was added to thereto, and intracellular melanin was obtained in incubator at 60° C.

brown guinea pigs = experiment: Skin whitening effect in UV-pigmented brown guinea pigs; type: in vivo, guinea pig; details: for Whitening effects (ΔL): once or twice a day for 50 days, control ΔL 0.35
Method: A skin whitening effect of α-bisabolol was measured using brown guinea pigs (Charles River Laboratories, Inc.) pigmentation of which is known to increase upon exposure to ultraviolet light like human.
To induce pigmentation in the brown guinea pig by ultraviolet (UV), aluminum foil with square windows of 3×3 cm^2 was adhered to hair-removed abdominal skin of brown guinea pig, and then UV light was irradiated thereon with a SE lamp (wavelength 290-320 nm, Toshiba) (total irradiation energy=1350 mJ/cm^2). After UV irradiation, the aluminum foil was removed and samples (α-bisabolol or arbutin) were applied as the following method. Increased pigmentation was observed on 2-3 days after UV irradiation and reached a maximum after about 2 weeks. Following the period of time showing the maximum pigmentation, samples were applied.
The application of samples was performed once or twice a day for 50 days. The samples were dissolved or diluted in a solvent (Propylene glycol:ethanol:water 5:3:2) and applied by a swab. The control with only the solvent was applied to another site. The occurrence of cumulative irritation was also examined.
The degree of pigmentation of skin was determined using a chromameter (CR2002, MINOLTA, JP) to estimate the effects of applied samples. La*b* calorimetric system was used to classify color and L* value was used as standard in Example. The L* value was corrected using white board standard and was measured more than five times at one site. Pigmentation was evenly distributed. Skin color differences (ΔL*) between application starting point and application end point were obtained and used to evaluate effects of samples.
ΔL*=L* value on […] after application−L* value on application starting day Equation 1
ΔL* values were obtained for control and sample application to evaluate skin whitening effects.

intracellular tyrosinase = molecular target: T1, intracellular tyrosinase (Mus musculus, UniProt P11344); experiment: Inhibition of intracellular tyrosinase activity in murine melanoma (B-16 F1) cells; details: B16-F1, read-out: Inhibitory rate of intracellular tyrosinase activity (%)
T1 sequence (P11344 19-533): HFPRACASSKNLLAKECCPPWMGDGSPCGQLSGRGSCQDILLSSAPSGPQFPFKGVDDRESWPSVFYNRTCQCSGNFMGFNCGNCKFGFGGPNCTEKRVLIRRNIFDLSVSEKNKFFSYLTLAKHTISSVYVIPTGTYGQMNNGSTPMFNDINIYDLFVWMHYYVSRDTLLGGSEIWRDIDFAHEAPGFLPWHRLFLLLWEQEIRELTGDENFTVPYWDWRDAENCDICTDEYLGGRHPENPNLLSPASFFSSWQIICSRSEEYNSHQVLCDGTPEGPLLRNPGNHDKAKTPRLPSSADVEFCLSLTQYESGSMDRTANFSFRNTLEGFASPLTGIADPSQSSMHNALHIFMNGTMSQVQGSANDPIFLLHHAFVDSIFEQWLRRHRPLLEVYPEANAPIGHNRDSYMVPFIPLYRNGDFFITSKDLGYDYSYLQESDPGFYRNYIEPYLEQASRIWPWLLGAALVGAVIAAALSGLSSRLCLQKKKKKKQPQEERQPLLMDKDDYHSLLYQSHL
Method: After measuring the inhibition of melanin production by α-bisabolol using B16 mouse melanoma cells (Korean Cell Line Bank), the measurement was compared with that for the inhibition of intracellular tyrosinase activities by arbutin, known as a melanin production inhibitor. Murine melanoma (B-16 F1) cells were seeded into each well of a 6-well plate (1×10^5 cells/well) in DMEM containing 10% FBS (fetal bovine serum) and the cells were cultured to about more than 80% adherence by incubating in a CO2 incubator under conditions of 37° C. and 5.0% CO2. After cultivation, the medium was removed and samples were replaced in medium diluted at suitable concentration, followed by incubating for 3 days under conditions of 37° C. and 5.0% CO2. […] The cells removing medium were washed with PBS (phosphate buffer saline) and treated with trypsin to collect cells. The number of the collected cells was calculated using hematocytometer, centrifuged at 5,000 to 10,000 rpm for 10 min and the supernatant was eliminated, thereby obtaining pellets. This cell pellets were lysated using lysis buffer, centrifuged at 12,000 rpm for 10 min and the supernatant was collected. Then, the cell solution was measured for absorbance at 492 nm using microplate reader and the activity of tyrosinase per cell constant number was estimated.

B16 mouse melanoma cells [2] = experiment: Cytotoxicity at the test concentrations in B16 melanoma cells; type: cell-based; details: 1 ppm, 5 ppm and 10 ppm
[3] = Anti-oxidation: removal of superoxide anion (SOD Assay Kit-WST); type: biochemical
Method: Superoxide dismutase (SOD) has been known as an anti-oxidation-catalyzing enzyme which converts superoxide anion into H2O2 and O2. This experiment evaluates anti-oxidation activity of samples by observing removal of superoxide anion generated by xanthine oxidase. The experiment was performed using the kit (SOD Assay Kit-WST) purchased from Dojindo (JP) in accordance with manufacture's protocol.

COX (cyclooxygenase) = experiment: COX inhibitory ability in LPS-treated THP-1 cells; type: cell-based, human; details: LPS alone = 100
Method: To determine whether α-bisabolol had anti-inflammatory effects, the experiment of COX (cyclooxygenase) inhibitory ability was carried out using human monocytic cell, THP-1 cell (Korean Cell Line Bank) according to conventional method. The COX activity was measured in accordance with Methods in Enzymology 43:9 (1994) published by F. J. Van de Ouderaaa and Muytenhek. THP-1 cell line was cultivated and aliquoted into 24-well plate. The incubation volume per well was adjusted to 500 μl, 2 μl of the sample compound, which dissolved in lipopolysaccahride (1 μg/ml, Sigma) and solvents described in the following Table respectively, was added and cultivated for 24-48 hr under the same condition. After 24-48 hr, calcium ionophore (Sigma) and [1-14C] arachidonic acid 1 μl (in EtOH, 0.1 μCi/ml, Sigma) were added to each well, and cultivated for 10 min under the same condition. Following the cultivation, citric acid was added to each well for adjusting to pH 3.5, shaked, each 500 μl of cultivation solution taken from the plate was aliquoted into micro centrifuge tube, 700 μl of ethylacetate was added to thereto, and the solution was shaking extracted for 10 min. 500 μl of ethylacetate layer was concentrated using speed vacuum dryer for 20 min, 20 μl of the residual was dissolved in ethylacetate, and the resultant was employed with authentic standard in TLC plate. The radioactive band was identified by authentic eicosanoid standards, the radioactivity of the identified band was measured using BAS 2000 bio-imaging analyzer (Fuji, JP) (Table 7).

[4] = tested on: procollagen type I C-peptide (PICP); experiment: Collagen synthesis (procollagen type I C-peptide) in human fibroblasts; type: cell-based; details: 24 hr
Method: Human fibroblasts (commercially available from pacific) were seeded into a 6-well plate (2×10^5 cells/well) and the well plate was incubated in a 5% CO2 incubator for 24 hr at 37° C. After 24 hr, the medium in each well was removed and cells were incubated with various concentrations of samples for 24 hr. Afterwards, the cell medium was collected and was used as samples. The potential of collagen synthesis was determined by measuring the amount of procollagen type I C-peptide (PICP) in cell medium using Procollagen Type I C-peptide EIA kit (MK101, Takara, Kyoto, Japan) in accordance with manufacturer's protocol.

[5] = Obesity inhibition test in ICR male mice (body weight); type: in vivo, mouse; details: single forced administration
Method: An obesity inhibition test was performed by the following method using well-known laboratory animals. The process for determining obesity-inhibitory activity was as follows: Crj: 7 week-old ICR male mice (obtained from Charles River Japan Ltd) weeks were preliminarily fed for 1 week, then classified into groups each having 7 animals and subjected to the test. The animals were fed under controlled conditions at a temperature of 23±1° C., and a humidity of 55±5% under illumination for 12 hours per day. They were fed with a feed Labo MR (manufactured by Nippon Nosan) and allowed to take water ad libitum. α-Bisabolol was present in the form of liposome (prepared with 5% lecithin) to the final concentration of either 0.1% or 1%. The concentration of each sample solution was adjusted so that 0.1 ml of the solution was given per 10 g body weight of mice. The doses employed were […] and 1 g/kg. To a control group, 5% lecithin emulsion was administered. After fasting the mice, the sample was administered once by force on the next day. During the test period over 2 weeks, the body weight and general conditions were monitored.

collagenase = experiment: Collagenase activity in human fibroblast medium (Type 1 collagenase assay kit); type: cell-based; details: human fibroblasts, 24 hr
Method: Human fibroblasts (commercially available from pacific) were seeded into a 6-well plate (2×10^5 cells/well) and the well plate was incubated in a 5% CO2 incubator for 24 hr at 37° C. After 24 hr, the medium in each well was removed and cells were incubated with various concentrations of samples for 24 hr. Afterwards, the cell medium was collected and was used as samples.
For measuring the collagenase activity, antibodies against collagenase was used. The collagenase activity was measured using a Type 1 collagenase assay kit (Amersham Biosciences, RPN2629) and the absorbance values were obtain using an ELISA reader (Bio-Tek ELx808™ Series Ultra Microplate Reader, U.K). The measured average values were represented as mean±standard deviation.

Interleukin-2 promoter = experiment: Interleukin-2 luciferase reporter activity in PHA-activated Jurkat cells; type: cell-based, human; details: 24 hr, PHA alone = 100
Method: Interleukin-2 promoter was reported to play an important role in the generation of cytokine related to inflammatory. The activity of interleukin-2 luciferase was measured using the following method: Human T lymphocytes cell line, 1×10^6 of Jurkat cell (Korean Cell Line Bank) were aliquoted into each well of 6-wells, IL-2 luciferase reporter plasmid DNA (Stratagene) was transfected using superfect transfection reagent (In vitrogen). 24 hr after transfection, PHA (Phytohemaglutinin, Sigma) (100 ng/ml) was treated to activate Jurkat cell and each samples was treated with varying concentration. Following 24 hr, the cell was collected and the luciferase activity was measured using luminometer (Berthold Technologies GmbH&Co.KG, Germany).

## OC[C@H]1O[C@@H](Oc2ccc(O)cc2)[C@H](O)[C@@H](O)[C@@H]1O [Arbutin, reference compound]
B16 mouse melanoma cells [1]
  inhibition at 5 ppm: 22%
Brown guinea pigs; 1.0 % topical
  Whitening effects (ΔL): 0.54
Intracellular tyrosinase
  inhibition at 5 ppm: 45%

## CC(C)=CCC[C@](C)(O)C1CC=C(C)CC1 (stereo in doubt) [α-Bisabolol, (2S)-6-methyl-2-[(1R)-4-methyl-1-cyclohex-3-enyl]hept-5-en-2ol]
B16 mouse melanoma cells [2]
  Cytotoxicity: did not show cytotoxicity
[3]; 1 ppm
  Removal rate of superoxide anion (%): 8%
[3]; 5 ppm
  Removal rate of superoxide anion (%): 18%
[3]; 10 ppm
  Removal rate of superoxide anion (%): 34%
COX (cyclooxygenase); 1 ppm with LPS (1 μg/ml)
  COX activities (%): 95%
COX (cyclooxygenase); 5 ppm with LPS (1 μg/ml)
  COX activities (%): 75%
COX (cyclooxygenase); 10 ppm with LPS (1 μg/ml)
  COX activities (%): 67%
[4]; 1 ppm
  Increase of collagen synthesis (%): 23%
[4]; 5 ppm
  Increase of collagen synthesis (%): 43%
[4]; 10 ppm
  Increase of collagen synthesis (%): 76%
B16 mouse melanoma cells [1]; 1 ppm
  inhibition at 1 ppm: 24%
B16 mouse melanoma cells [1]
  inhibition at 5 ppm: 36%
B16 mouse melanoma cells [1]; 10 ppm
  inhibition at 10 ppm: 49%
Brown guinea pigs; 0.2 % topical
  Whitening effects (ΔL): 0.42
Brown guinea pigs; 1.0 % topical
  Whitening effects (ΔL): 0.67
Brown guinea pigs; topical on brown guinea pig skin for 50 days
  Cumulative irritation: no observation of cumulative irritation
[5]; 0.1% in liposome, day 5, untreated 24
  Body weight: 24 g
[5]; 0.1% in liposome, day 10, untreated 28
  Body weight: 24 g
[5]; 0.1% in liposome, day 15, untreated 34
  Body weight: 26 g
[5]; 1% in liposome, day 5, untreated 24
  Body weight: 23 g
[5]; 1% in liposome, day 10, untreated 28
  Body weight: 24 g
[5]; 1% in liposome, day 15, untreated 34
  Body weight: 26 g
Intracellular tyrosinase
  inhibition at 1 ppm: 13%
  inhibition at 5 ppm: 38%
  inhibition at 10 ppm: 58%
collagenase; 1 ppm
  Inhibition of collagenase (%): 12%
collagenase; 5 ppm
  Inhibition of collagenase (%): 28%
collagenase; 10 ppm
  Inhibition of collagenase (%): 43%
Interleukin-2 promoter; 1 ppm with PHA (100 ng/ml)
  IL-2 luciferase activities: 92
Interleukin-2 promoter; 5 ppm with PHA (100 ng/ml)
  IL-2 luciferase activities: 72
Interleukin-2 promoter; 10 ppm with PHA (100 ng/ml)
  IL-2 luciferase activities: 58
